These results are taken from ChEMBL document CHEMBL1177695, “Discovery and development of natural product-derived chemotherapeutic agents based on a medicinal chemistry approach” (J Nat Prod, 2010).

The term IC50 denotes the concentration at which inhibition is half-maximal. Usually T/C stands for the ratio of treated to control.

Data set [1] relates to Hep-2 (human). The data set is described as follows: Cytotoxicity against human Hep-2 cells. To be noted: read-out: ED50 (the source's name).
Data set [2] relates to MCF7. The data set is described as follows: Cytotoxicity against human MCF7 cells after 72 hrs by sulforhodamine B assay. The format is functional. To be noted: MCF7, 72 h, read-out: ED50 (the source's name). (Sulforhodamine B stains cellular protein and so reports cell mass.)
The test system of data set [3] is SK-BR-3. The data set is described as follows: Cytotoxicity against human SK-BR-3 cells after 72 hrs by sulforhodamine B assay. It counts as functional. To be noted: SK-BR-3, 72 h, read-out: ED50 (the source's name).
In data set [4] the test system is ZR-75-1. The data set is described as follows: Cytotoxicity against human ZR-75-1 cells after 72 hrs by sulforhodamine B assay. It counts as functional. Particulars: ZR-75-1, 72 h, read-out: ED50 (the source's name).
Data set [5] relates to MDA-MB-231. Nature of the data set: Cytotoxicity against human MDA-MB-231 cells after 72 hrs by sulforhodamine B assay. It counts as functional. Particulars: MDA-MB-231, 72 h, read-out: ED50 (the source's name).
Data set [6] has as its system H9. The data set is described as follows: Cytotoxicity against human H9 cells after 4 days by coulter counter. It counts as cell-based. To be noted: Homo sapiens, H9, 96 h.
For data set [7], the system named is Human immunodeficiency virus 1. The data set is described as follows: Antiviral activity against HIV1 3B infected in H9 cells assessed as inhibition of viral replication by p24 antigen ELISA. The format is functional, organism-based. Particulars: Human immunodeficiency virus 1, 3B, H9; read-out: EC50. In general terms: In an ELISA, binding on a coated surface is turned into a signal by an enzyme label.

Data set [8] is described as follows: Therapeutic index, ratio of IC50 for human H9 cells to EC50 for HIV 3B. To be noted: read-out: TI. The format is cell-based.
Data set [9] has as its system Human immunodeficiency virus 1. The data set is described as follows: Antiviral activity against multidrug-resistant HIV1 RTMDR1 infected in H9 cells assessed as inhibition of viral replication by p24 antigen ELISA. The format is functional, organism-based. Particulars: Human immunodeficiency virus 1, RTMDR1, H9.
The nature of data set [10]: Therapeutic index, ratio of IC50 for human H9 cells to EC50 for multidrug-resistant HIV1 RTMDR1. The format is cell-based. Particulars: read-out: TI.
Data set [11] relates to P388. The data set is described as follows: Antitumor activity against mouse P388 cells allografted in mouse at 8 mg/kg relative to control. The format is functional.
In data set [12] the test system is Tubulin. Nature of the data set: Inhibition of tubulin polymerization.
Data set [13] can be described thus: Antitumor activity against rat Walker 256 cells allografted in rat at 2.5 mg/kg relative to control. The format is functional.
For data set [14], the system named is A549. The data set is described as follows: Cytotoxicity against human A549 cells after 3 days by sulforhodamine B assay. The format is functional, cell-based. Particulars: A549, 72 h.
Data set [15] concerns 1A9. The data set is described as follows: Cytotoxicity against human 1A9 cells after 3 days by sulforhodamine B assay. It counts as functional, cell-based. Particulars: 1A9, 72 h.
Data set [16] has as its system A-431. Nature of the data set: Cytotoxicity against human A431 cells after 3 days by sulforhodamine B assay. The format is functional, cell-based. To be noted: A-431, 72 h.
The test system of data set [17] is HCT-8. Nature of the data set: Cytotoxicity against human HCT8 cells after 3 days by sulforhodamine B assay. The format is functional, cell-based. To be noted: HCT-8, 72 h.
Data set [18] has as its system PC-3. The data set is described as follows: Cytotoxicity against human PC3 cells after 3 days by sulforhodamine B assay. It counts as functional, cell-based. To be noted: PC-3, 72 h.
For data set [19], the system named is KB. The data set is described as follows: Cytotoxicity against human KB cells after 3 days by sulforhodamine B assay. The format is functional, cell-based. To be noted: 72 h.
Data set [20] can be described thus: Cytotoxicity against human KBVIN cells after 3 days by sulforhodamine B assay. The format is functional, cell-based. Particulars: 72 h.
For data set [21], the system named is Human immunodeficiency virus 1. Nature of the data set: Antiviral activity against HIV1 infected in human H9 cells after 4 days by p24 antigen ELISA. It counts as functional, organism-based. To be noted: Human immunodeficiency virus 1, H9, 96 h.
Data set [22] can be described thus: Therapeutic index, ratio of IC50 for human H9 cells to EC50 for HIV1. It counts as cell-based. Particulars: read-out: TI.
For data set [23], the system named is Human immunodeficiency virus 1. The data set is described as follows: Anti-HIV-1 activity in human H9 cells. Particulars: H9, 96 h.
A short description of data set [24]: Inhibition of tubulin polymerization.
The subject of data set [25] is KB. Nature of the data set: Cytotoxicity against human KB cells. It counts as functional, cell-based.
Data set [26] in a line: Cytotoxicity against human KB-7d cells expressing multidrug-resistant protein. It counts as functional, cell-based. To be noted: KB7D.
Data set [27] can be described thus: Cytotoxicity against vincristine-resistant human KB/VCR cells overexpressing P-glycoprotein. The format is functional, cell-based.
The test system of data set [28] is KB. The data set is described as follows: Cytotoxicity against CPT-resistant human KB cells […] reduced level of topoisomerase. The format is functional, cell-based.

Values after ≈ are worked out from the molar mass of the structure shown.

Take `C=C1C(=O)O[C@@H]2C[C@@H](C)[C@@H]3CCC(=O)[C@@]3(C)[C@@H](O)[C@H]12`: the EC50 in [1] amounted to 3.84 µg/mL (≈ 14.5 µM).

As to `COc1cccc2c1ccc1c3occ(C)c3c(=O)oc21`, the EC50 in data set [2] was 2.3 µg/mL (≈ 8.21 µM); in [3], 0.2 µg/mL (≈ 0.714 µM); in [4], 0.1 µg/mL (≈ 0.357 µM); in data set [5], 6.4 µg/mL (≈ 22.8 µM).

In data set [6], `CC1(C)Oc2ccc3c(=O)cc(-c4ccccc4)oc3c2[C@@H](OC(=O)C23CCC(C)(C(=O)O2)C3(C)C)[C@H]1OC(=O)C12CCC(C)(C(=O)O1)C2(C)C` (stereo partly specified) returned a concentration for half-maximal inhibition (IC50) of 12200 nM. Moreover, the EC50 in data set [7] came to 130 nM; in data set [9] it was 170 nM. Further, the selectivity ratio in data set [8] came out at 277; in data set [10] it was 71.

`C=C1C(=O)O[C@@H]2C[C@@H](C)[C@H]3C=CC(=O)[C@@]3(C)[C@@H](OC(=O)CCCC(=O)O[C@H]3[C@H]4C(=C)C(=O)O[C@@H]4C[C@H](C)[C@H]4C=CC(=O)[C@]43C)[C@@H]12`: the T/C in data set [11] came to 195%.

Regarding `Cc1ccc2c(=O)cc(-c3cccc(F)c3)[nH]c2n1`, it took 530 nM to reach half-maximal inhibition in data set [12] (IC50).

The compound `C=C1C(=O)O[C@H]2[C@H]1[C@@H](OC(=O)/C(C)=C/C)C/C(C)=C/C(=O)/C=C(/C)[C@@H]2O` [MOLEPHANTININ] had a T/C in data set [13] of 397%.

`C=C(C)C(=O)O[C@H]1C/C(C)=C\[C@@]2(OCC)C=C(C)[C@H](O2)[C@H]2OC(=O)C(=C)[C@@H]21` [PHANTOMOLIN] had a T/C in data set [13] of 378%.

In turn, `CCc1cc(=O)c2ccc3c(c2o1)[C@@H](OC(=O)C12CCC(C)(C(=O)O1)C2(C)C)[C@@H](OC(=O)C12CCC(C)(C(=O)O1)C2(C)C)C(C)(C)O3` (stereo partly specified) had an IC50 in data set [6] of 37200 nM. Further, the results for the selectivity ratio in data set [8] and in [10] were 116000 and 718, respectively. Also, in data set [9], the EC50 was found to be 60 nM.

The compound `Cc1cc(=O)c2ccc3c(c2o1)[C@@H](OC(=O)C12CCC(C)(C(=O)O1)C2(C)C)[C@@H](OC(=O)C12CCC(C)(C(=O)O1)C2(C)C)C(C)(C)O3` (stereo partly specified) showed an IC50 in [6] of 11800 nM. Besides, the selectivity ratio came out at 8600 in data set [8] and 63 in data set [10]. Further, in [9], the EC50 was determined as 190 nM.

As to `Cc1cnc2[nH]c(-c3cccc(Cl)c3)cc(=O)c2c1`, the IC50 in [12] is 720 nM.

As to `COc1cccc(-c2cc(=O)c3ccc(C)nc3[nH]2)c1`, it took 750 nM to reach half-maximal inhibition in data set [12] (IC50).

In the case of `CCC1=C(O)c2c(oc(-c3cccc4ccccc34)cc2=O)C(CC)(CC)C1=O` [2-(NAPHTHALEN-1-YL)-6,8,8-TRIETHYL DESMOSDUMOTIN B], the EC50 in data set [14], in [15], in data set [16], in [17], in data set [18] and in data set [19] was 0.2 µg/mL (≈ 0.515 µM) each time. This compound also displayed an EC50 in [20] of 0.2 µg/mL (≈ 0.515 µM).

With `C=C(C)[C@@H]1CC[C@]2(C(=O)O)CC[C@]3(C)[C@H](CC[C@@H]4[C@@]5(C)CC[C@H](OC(=O)CCCC(=O)O)C(C)(C)[C@@H]5CC[C@]43C)[C@@H]12`, the half-inhibitory concentration (IC50) in data set [21] stood at 12800 nM. The selectivity ratio in data set [22] was found to be 292. This compound had an EC50 in data set [23] of 44 nM.

In turn, `COc1ccc2c(c1)c(=O)ccc1cc(OC)c(OC)c(OC)c12` returned an IC50 in data set [24] of 1000 nM. The EC50 in [25] came out at 0.029 µg/mL (≈ 0.0889 µM); in data set [26] it was 0.024 µg/mL (≈ 0.0735 µM); in data set [27], 0.016 µg/mL (≈ 0.049 µM); in [28] it was 0.042 µg/mL (≈ 0.129 µM).

Regarding `C[C@@H]1C[C@H](O)[C@H](O)[C@@H](O[C@H]2CC[C@]3(C=O)[C@H]4CC[C@]5(C)[C@@H](c6ccc(=O)oc6)CC[C@]5(O)[C@@H]4CC[C@]3(O)C2)O1` [KALANCHOSIDE C], the IC50 in [14] was determined as 0.006 µg/mL (≈ 0.011 µM); in data set [15], 0.012 µg/mL (≈ 0.022 µM); in data set [16] it was 0.055 µg/mL (≈ 0.101 µM); in [17], 0.045 µg/mL (≈ 0.0823 µM); in [18], 0.025 µg/mL (≈ 0.0457 µM); in [19], 0.016 µg/mL (≈ 0.0293 µM). Further, the IC50 in data set [20] turned out to be 0.026 µg/mL (≈ 0.0476 µM).

As to `CCOCc1cc(=O)c2ccc3c(c2o1)[C@@H](OC(=O)C12CCC(C)(C(=O)O1)C2(C)C)[C@@H](OC(=O)C12CCC(C)(C(=O)O1)C2(C)C)C(C)(C)O3` (stereo partly specified), half-maximal inhibition in data set [6] (IC50) required 12500 nM. The EC50 in data set [7] was 100 nM; in data set [9], 370 nM. For the same compound, the results for the selectivity ratio in data set [8] and in data set [10] were 151 and 34, respectively.
